Test results: US8742082B2, “Compositions and methods for influencing satiety, lipid metabolism, and fat utilization” (Nestec S.A., priority 2008, dated 2014)

Key:
Assay type in all cases: in vivo
CPT1 = test: Real-time PCR gene expression in peripheral tissues: CPT1; conditions: C57bl6j mice, high fat diet, 100 mg/kg/body weight in diet, 5 weeks
Procedure: (§1) The expression of 45 genes was measured by real-time PCR in peripheral tissues to identify genes that were differentially expressed in response to oral administration of oleoylethanolamide (OEA) or a non-hydrolysable OEA analog (KDS 5104), which affect satiety, lipid metabolism, fat utilization, food intake, and body fat mass.
(§2) Animals, diet, and experimental design. Adult male C57bl6j mice purchased at 8 weeks of age were individually housed and maintained ad libitum on high fat diet and water for 2 weeks. Seven mice were randomly allocated in 3 groups and fed with a high fat diet (lipids represented 50% of daily energy) for 2 weeks. For one kilogram, the composition of the high fat diet was: 235 g casein, 201 g saccharose, 3.5 g L-cystine, 85 g starch, 116 g maltodextrin, 60 g cellulose, 12 g vitamins mix (AIN-93M, UPAE, Jouy-en-Josas, France), 51.5 g mineral mix (AIN-93Vx, UPAE, Jouy-en-Josas, France), and 236 g lard. Then, either OEA or KDS 5104 was added to the diet at a concentration of 100 mg/kg/body weight. The mice were kept under treatment for 5 weeks.
(§3) Sampling. At the end of the experimental period, mice were sacrificed by blood drawing (cardiac puncture) after anesthesia with isoflurane. Plasma was obtained by centrifugation (1,000 g for 10 min at 4° C.). Mesenteric, epididymal, inguinal and peritoneal adipose depots, as well as liver, stomach, small intestine mucosa, pancreas, and gastrocnemian muscle were removed and frozen into liquid nitrogen. Plasma, urine, feces, and organ samples were kept at −80° C. until analysis.
(§4) RNA extraction and gene expression. Total RNA from liver, intestine mucous membrane, adipose tissues, gastrocnemian muscle, pancreas and stomach were extracted with TRIzol reagent (Invitrogen, Carlsbad, USA) according to the manufacturer's instruction. The RNA concentration was determined on nanodrop from the absorbance at 260 nm. Retro-transcription PCRs to synthesize cDNA were performed using an Applied Biosystem Thermal Cycler 2720 and Superscript II (Invitrogen, Carlsbad, USA) according to manufacturer's protocol. Real-time quantitative PCR (RT-qPCR) were performed on cDNA obtained as described above using a high through put system (Biomek 3000, Beckman & Coulter, Fullerton, USA) and a Lightcycler 480 (Roche/Hitachi, Basel, Switzerland) with SYBR Green Master mix+kit (Eurogentec, Philadelphia, USA). Primers for the selected genes were generated using online informatics assistance from the Lightcycler manufacturer (Roche). Databases used to identify the genes were (1) the NCBI database (GenBank) and (2) the IHOP (Information Hyperlinked over Protein) database (www.ihop-net.org/UniPub/iHOP/bng/). Values were expressed as ratio of RNA levels relative to control mice (diets with 0 mg of OEA/kg/body weight) using ΔΔ(Ct) (Livak K J & Schmittgen T D, 2001, Methods 25:402-8). Gene expression of the following genes was measured (abbreviation and GenBank Accession shown in parentheses).
(§5) Statistical analysis. […] Statistical analysis of physiological parameters and gene expression data was performed by one-way ANOVA on Statview software (SAS Institute, Cary, USA). Daily food intake was analyzed using two-way ANOVA on Statview software. Statistical significance was set up at the P<0.05 level, the P<0.01 level and the P<0.001 level. For statistical analysis of the gene expression data, values were calculated relative to 18S expression for each mouse and gene.

AcylCoA oxidase (ACO) = test: Real-time PCR gene expression in peripheral tissues: ACO; conditions: liver; C57bl6j mice, high fat diet, 100 mg/kg/body weight in diet, 5 weeks
Procedure: as §1
(§6) Animals, diet, and experimental design. Adult male C57bl6j mice purchased at 8 weeks of age were individually housed and maintained ad libitum on high fat diet and water for 2 weeks. Seven mice were randomly allocated in 3 groups and fed with a high fat diet (lipids represented 50% of daily energy) for 2 weeks. […]
(§7) RNA extraction and gene expression. […] The RNA concentration was determined on nanodrop from the absorbance at 260 nm. […] Real-time quantitative PCR (RT-qPCR) were performed on cDNA obtained as described above using a high through put system (Biomek 3000, Beckman & Coulter, Fullerton, USA) and a Lightcycler 480 (Roche/Hitachi, Basel, Switzerland) with SYBR Green Master mix+kit (Eurogentec, Philadelphia, USA). […] Values were expressed as ratio of RNA levels relative to control mice (diets with 0 mg of OEA/kg/body weight) using ΔΔ(Ct) (Livak K J & Schmittgen T D, 2001, Methods 25:402-8). Gene expression of the following genes was measured (abbreviation and GenBank Accession shown in parentheses). […]

[1] = tested on: Uncoupling protein 2 (UCP2); test: Real-time PCR gene expression in peripheral tissues: UCP2; conditions: muscle; C57bl6j mice, high fat diet, 100 mg/kg/body weight in diet, 5 weeks
Procedure: as §1, §6, §7

[2] = tested on: Fatty Acid Synthase (FAS 1); test: Real-time PCR gene expression in peripheral tissues: FAS; conditions: liver; C57bl6j mice, high fat diet, 100 mg/kg/body weight in diet, 5 weeks
Procedure: as §1, §6, §7

[3] = tested on: Sterol regulatory element binding protein-c 1 (SREBP 1c); test: Real-time PCR gene expression in peripheral tissues: SREBP1c; conditions: C57bl6j mice, high fat diet, 100 mg/kg/body weight in diet, 5 weeks
Procedure: as §1, §2, §3, §4, §5

[4] = tested on: Sterol regulatory element binding protein-C 2 (SREBP2 1); test: Real-time PCR gene expression in peripheral tissues: SREBP2; conditions: liver; C57bl6j mice, high fat diet, 100 mg/kg/body weight in diet, 5 weeks
Procedure: as §1, §6, §7

[5] = tested on: Stearoyl-Coenzyme A desaturase 1 (SCD 1); test: Real-time PCR gene expression in peripheral tissues: SCD1; conditions: C57bl6j mice, high fat diet, 100 mg/kg/body weight in diet, 5 weeks
Procedure: as §1, §2, §3, §4, §5

[6] = tested on: Fatty acid transporter/cluster of differentiation 36 (FAT/CD 36); test: Real-time PCR gene expression in peripheral tissues: FAT/CD36; conditions: C57bl6j mice, high fat diet, 100 mg/kg/body weight in diet, 5 weeks
Procedure: as §1, §2, §3, §4
Statistical analysis. Results are presented as means±standard error of the means (SEM). Statistical analysis of physiological parameters and gene expression data was performed by one-way ANOVA on Statview software (SAS Institute, Cary, USA). Daily food intake was analyzed using two-way ANOVA on Statview software. Statistical significance was set up at the P<0.05 level, the P<0.01 level and the P<0.001 level. For statistical analysis of the gene expression data, values were calculated relative to 18S expression for each mouse and gene.

[7] = tested on: Protein convertase subtilisin/kexin type 9 (PCSK 9); test: Real-time PCR gene expression in peripheral tissues: PCSK9; conditions: liver; C57bl6j mice, high fat diet, 100 mg/kg/body weight in diet, 5 weeks
Procedure: as §1, §6, §7

[8] = tested on: Fasting induced adipocyte factor (Fiaf); test: Real-time PCR gene expression in peripheral tissues: Fiaf; conditions: C57bl6j mice, high fat diet, 100 mg/kg/body weight in diet, 5 weeks
Procedure: as §1, §2, §3, §4, §5

Visfatin = test: Real-time PCR gene expression in peripheral tissues: visfatin; conditions: C57bl6j mice, high fat diet, 100 mg/kg/body weight in diet, 5 weeks
Procedure: as §1, §2, §3
RNA extraction and gene expression. Total RNA from liver, intestine mucous membrane, adipose tissues, gastrocnemian muscle, pancreas and stomach were extracted with TRIzol reagent (Invitrogen, Carlsbad, USA) according to the manufacturer's instruction. The RNA concentration was determined on nanodrop from the absorbance at 260 nm. […] Real-time quantitative PCR (RT-qPCR) were performed on cDNA obtained as described above using a high through put system (Biomek 3000, Beckman & Coulter, Fullerton, USA) and a Lightcycler 480 (Roche/Hitachi, Basel, Switzerland) with SYBR Green Master mix+kit (Eurogentec, Philadelphia, USA). […] Values were expressed as ratio of RNA levels relative to control mice (diets with 0 mg of OEA/kg/body weight) using ΔΔ(Ct) (Livak K J & Schmittgen T D, 2001, Methods 25:402-8). Gene expression of the following genes was measured (abbreviation and GenBank Accession shown in parentheses).
Statistical analysis. […] Daily food intake was analyzed using two-way ANOVA on Statview software. […] For statistical analysis of the gene expression data, values were calculated relative to 18S expression for each mouse and gene.

For `CCCCCCCC/C=C\CCCCCCCC(=O)N[C@H](C)CO` [KDS 5104, (Z)—(R)-9-octadecenamide, N-(2-hydroxyethyl, 1-methyl)], the “CPT1 l, ratio of RNA levels relative to control mice” value (CPT1; liver) was 1.06, the “CPT1 p, ratio of RNA levels relative to control mice” value (CPT1; pancreas) was 1.80 and the “CPT1 i, ratio of RNA levels relative to control mice” value (CPT1; proximal intestine) was 1.63. For the same compound, the “ACO l, ratio of RNA levels relative to control mice” value (AcylCoA oxidase (ACO)) was 1.15, the “UCP2 m, ratio of RNA levels relative to control mice” value [1] was 1.11 and the “FAS l, ratio of RNA levels relative to control mice” value [2] was 2.47. For the same compound, the “SREBP1c at ep, ratio of RNA levels relative to control mice” value ([3]; epidydimal adipose tissue) was 1.00, the “SREBP1c l, ratio of RNA levels relative to control mice” value ([3]; liver) was 1.47 and the “SREBP1c at per, ratio of RNA levels relative to control mice” value ([3]; peritoneal adipose tissue) was −1.35. The “SREBP2 l, ratio of RNA levels relative to control mice” value [4] was 1.13, the “SCD 1 at ep, ratio of RNA levels relative to control mice” value ([5]; epidydimal adipose tissue) was 1.24 and the “SCD1 l, ratio of RNA levels relative to control mice” value ([5]; liver) was −1.91. The “SCD 1 at per, ratio of RNA levels relative to control mice” value ([5]; peritoneal adipose tissue) was 1.51, the “FAT/CD36 at ep, ratio of RNA levels relative to control mice” value ([6]; epidydimal adipose tissue) was −2.24 and the “FAT/CD36 l, ratio of RNA levels relative to control mice” value ([6]; liver) was 0.88. For the same compound, the “FAT/CD36 at per, ratio of RNA levels relative to control mice” value ([6]; peritoneal adipose tissue) was 1.01, the “FAT/CD36 i, ratio of RNA levels relative to control mice” value ([6]; proximal intestine) was 1.83 and the “PCSK9 l, ratio of RNA levels relative to control mice” value [7] was 1.34. For the same compound, the “Fiaf at ep, ratio of RNA levels relative to control mice” value ([8]; epidydimal adipose tissue) was 0.46, the “Fiaf at per, ratio of RNA levels relative to control mice” value ([8]; peritoneal adipose tissue) was 2.79 and the “Fiaf i, ratio of RNA levels relative to control mice” value ([8]; proximal intestine) was 0.68. For the same compound, the “visfatin at ep, ratio of RNA levels relative to control mice” value (Visfatin; epidydimal adipose tissue) was −1.08 and the “visfatin at per, ratio of RNA levels relative to control mice” value (Visfatin; peritoneal adipose tissue) was −1.10.
